Experimental data as given in patent US20230202997A1, “CHROMANOL, QUINONE OR HYDROQUINONE COMPOUNDS FOR TREATMENT OF SEPSIS” (Sulfateq B.V., priority 2020, published 2023).

Tests used:
[1] = tested on: HUVEC; test: LPS-induced mitochondrial oxidative stress in HUVEC (MitoSOX); type: cell-based, Human; details: SUL-138 added one hour prior to LPS
Protocol: Human Umbilical Vein Endothelial cells (HUVEC) were obtained from the RuG/UMCG Endothelial Cell Facility. Primary isolates of umbilical cords were mixed and subsequently cultured on HUVEC culture medium, consisted of RPMI 1640 (Lonza, art.nr. BE12-115F) supplemented with 20% heat-inactivated fetal calf serum (ThermoFisher Scientific, art.nr. 10082147), 2 mM 1-glutamine (Life Technologies art.nr. 25030), 5 U/ml heparin (Leo Pharmaceutical Products), 1% Penicillin/Streptomycin (Sigma-Aldrich art.nr. P4333), and 50 μg/ml EC growth factor supplement from (Sigma-Aldrich, art.nr. E2759).
Primary HUVECs were cultured in 75-cm2 tissue culture flasks (Corning, art.nr. 430720U) at 37° C. under 5% CO2/95% air. HUVECs were used for experiments up to passage 8. Experiments were performed in 6-well (Corning art.nr. 3506) or 96-well culture plates (Corning, art.nr. 3596), at 80% confluency. Cells were stimulated with LPS E. coli 0111:B4 (Sigma-Aldrich, art.nr. L2630) in different concentrations. Cells were detached with trypsin (Sigma-Aldrich, art.nr. 25300054). All compounds were dissolved in Hanks Balanced Salt Solution (Lonza, art.nr. 10-527F). […]
Cells and mitochondria were incubated and measured according to manufacturer's protocol in the Synergy H4 micro plate reader (Bio-Tek) at an excitation/emission rate of 548/574 nm.

[2] = tested on: IL-1β mRNA expression; test: Inhibition of LPS-induced IL-1β mRNA expression in NRK52E; type: cell-based, Rat; details: 10 μM for 30 min, then LPS 24 hours
Protocol: (§1) Rat kidney epithelial cells (ATCC #CRL-1571) were maintained in DMEM medium containing 10% fetal bovine serum, and 1% Penicillin-Streptomycin solution (Sigma-Aldrich). NRK52E cells were passaged by trypsinization when the cultures reached a confluency of 70%. For all experiments, NRK52E cells were seeded at 0.6·10^5 cells/cm^2 and allowed to adhere for 24 hours.
(§2) HUVEC and NRK52E cells were pre-incubated with SUL compounds (10 μM) for 30 min and subsequently exposed to LPS for 24 hours under standard culture conditions. Cells were lysed in triZOL reagens (Invitrogen) and total RNA isolated according to manufacturers' instruction. 1 μg total RNA per sample was reverse transcribed using the FirstAid Reverse Transcription Kit (ThermoFisher). Copy-DNA equivalents of 5 ng total RNA were amplified on a ViiA7 Real-time PCR system (ThermoFisher, Waltham, Mass.) using iTaq Universal SYBR Green Supermix (Bio-Rad, Hercules, Calif.) and primers specific for tumor necrosis factor alpha, interleukin 1 beta, interleukin-6 and beta actin as loading control. Amplification was performed for 40 cycles of 95° C. for 30 s, 60° C. for 1 min. Relative mRNA expression was calculated as 2^−(Cq^gene^−Cq^reference^) and normalized to unstimulated control cells (100% inhibition) and vehicle-treated and LPS exposed cells (0% inhibition). The following primers were used: […]

[3] = tested on: IL-6 mRNA expression; test: Inhibition of LPS-induced IL-6 mRNA expression in NRK52E; type: cell-based, Rat; details: 10 μM for 30 min, then LPS 24 hours
Protocol: as §1, §2

## Cc1c(C)c2c(c(C)c1O)CC[C@@](C)(C(=O)N1CCN(CCO)CC1)O2 [SUL-138, (S)-(6-hydroxy-2,5,7,8-tetramethylchroman-2-yl)(4-(2-hydroxyethyl)piperazin-1-yl)methanone]
[1]
  LPS induced mitochondrial oxidative stress (MitoSOX): reduces LPS induced mitochondrial oxidative stress
[2]
  inhibition of LPS-induced mRNA expression of IL-1β: 65.2 ± 8.9 %
[3]
  inhibition of LPS-induced mRNA expression of IL-6: 65.3 ± 7.6 %
